US10123993B2, “Cyclic ureas as inhibitors of rock” (BRISTOL-MYERS SQUIBB COMPANY, priority 2015, dated 2018)

Biological target: ROCK2 (Homo sapiens, UniProt O75116)
Experiment: ROCK2 kinase inhibition assay (Caliper LABCHIP, FITC peptide substrate)
Assay type: biochemical
Conditions: 5 μM ATP, 1.5 μM peptide substrate; value ranges
Protocol: The effectiveness of compounds of the present invention as ROCK inhibitors can be determined in a 30 μL assay containing 20 mM HEPES, pH 7.5, 20 mM MgCl2, 0.015% Brij-35, 4 mM DTT, 5 μM ATP and 1.5 μM peptide substrate (FITC-AHA-AKRRRLSSLRA-OH). Compounds were dissolved in DMSO so that the final concentration of DMSO was <2%, and the reaction was initiated with Rho kinase variants. After incubation, the reaction was terminated by the addition of EDTA and the phosphorylated and non-phosphorylated peptides separated using a LABCHIP® 3000 Reader (Caliper Life Sciences). […] Compounds were tested in dose-response format, and the inhibition of kinase activity was calculated at each concentration of compound. The inhibition data were fit using a curve-fitting program to determine the IC50; i.e., the concentration of compound required to inhibit 50% of kinase activity.
Representative Examples were tested in the ROCK2 assay described above and found having ROCK inhibitory activity.

Sequence of ROCK2 (O75116 whole entry, species assumed): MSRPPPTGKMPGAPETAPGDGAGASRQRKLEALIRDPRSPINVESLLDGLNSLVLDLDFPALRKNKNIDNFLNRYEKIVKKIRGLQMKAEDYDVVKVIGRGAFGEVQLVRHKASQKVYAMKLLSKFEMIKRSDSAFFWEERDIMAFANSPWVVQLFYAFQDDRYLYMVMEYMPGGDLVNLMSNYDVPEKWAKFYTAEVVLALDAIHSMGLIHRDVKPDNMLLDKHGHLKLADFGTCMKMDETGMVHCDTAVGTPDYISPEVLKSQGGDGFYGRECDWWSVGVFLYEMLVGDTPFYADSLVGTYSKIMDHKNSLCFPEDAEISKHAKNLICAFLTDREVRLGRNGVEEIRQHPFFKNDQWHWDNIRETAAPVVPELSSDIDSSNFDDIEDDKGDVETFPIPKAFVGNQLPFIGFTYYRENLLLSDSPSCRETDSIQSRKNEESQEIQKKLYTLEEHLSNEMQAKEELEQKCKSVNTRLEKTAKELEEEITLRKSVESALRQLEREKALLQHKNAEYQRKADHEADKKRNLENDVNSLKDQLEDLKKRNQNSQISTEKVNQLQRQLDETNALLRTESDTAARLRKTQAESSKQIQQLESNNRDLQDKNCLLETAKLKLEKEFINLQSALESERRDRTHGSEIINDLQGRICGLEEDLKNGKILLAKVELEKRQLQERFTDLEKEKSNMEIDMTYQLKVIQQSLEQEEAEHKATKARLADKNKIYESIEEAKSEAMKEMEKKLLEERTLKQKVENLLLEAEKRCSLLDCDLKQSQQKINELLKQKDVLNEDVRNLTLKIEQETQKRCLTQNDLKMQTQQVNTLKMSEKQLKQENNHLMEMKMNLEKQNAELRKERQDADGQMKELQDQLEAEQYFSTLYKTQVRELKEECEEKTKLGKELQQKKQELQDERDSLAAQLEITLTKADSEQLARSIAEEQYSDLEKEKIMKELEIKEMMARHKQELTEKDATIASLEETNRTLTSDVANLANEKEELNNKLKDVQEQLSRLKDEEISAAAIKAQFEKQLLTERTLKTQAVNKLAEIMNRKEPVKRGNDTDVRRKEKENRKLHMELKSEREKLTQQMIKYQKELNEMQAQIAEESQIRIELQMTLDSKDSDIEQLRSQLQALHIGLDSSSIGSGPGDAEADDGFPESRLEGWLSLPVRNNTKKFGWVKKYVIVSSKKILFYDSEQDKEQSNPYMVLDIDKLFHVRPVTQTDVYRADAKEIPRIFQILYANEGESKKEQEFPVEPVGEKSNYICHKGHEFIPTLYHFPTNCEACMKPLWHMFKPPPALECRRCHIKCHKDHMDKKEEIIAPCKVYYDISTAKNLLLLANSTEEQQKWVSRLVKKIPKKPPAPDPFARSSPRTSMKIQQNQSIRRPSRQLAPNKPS

SMILES | IC50 [nM]
CC(c1cccc(OCC2CC2)c1)N1CCN(c2ccc(-c3cn[nH]c3)cc2)C1=O (single isomer, unassigned) [Example 195, 1-(4-(1H-pyrazol-4-yl)-phenyl)-3-(1-(3-(cyclo-propyl-methoxy)-phenyl)-ethyl)-imidazolidin-2-one] | 200 to 2000
CC(c1cccc(OCC2CC2)c1)N1CCN(c2ccc(-c3cn[nH]c3)cc2)C1=O (single isomer, unassigned) [Example 196, 1-(4-(1H-pyrazol-4-yl)-phenyl)-3-(1-(3-(cyclo-propyl-methoxy)-phenyl)-ethyl)-imidazolidin-2-one] | 2.1 to 20
COc1cc(F)cc(C(C)N2CCN(c3ccc(-c4cn[nH]c4)cc3)C2=O)c1 (single isomer, unassigned) [Example 197, 1-(4-(1H-pyrazol-4-yl)-phenyl)-3-(1-(3-fluoro-5-methoxy-phenyl)ethyl) imidazolidin-2-one] | < 2
COc1cc(F)cc(C(C)N2CCN(c3ccc(-c4cn[nH]c4)cc3)C2=O)c1 (single isomer, unassigned) [Example 198, 1-(4-(1H-pyrazol-4-yl)-phenyl)-3-(1-(3-fluoro-5-methoxy-phenyl)ethyl) imidazolidin-2-one] | 200 to 2000
Cc1nc(N2CCN(C(C)c3cccc(OCC4CC4)c3)C2=O)ccc1-c1cn[nH]c1 (single isomer, unassigned) [Example 204, 1-(1-(3-(cyclopropyl-methoxy)-phenyl)-ethyl)-3-(6-methyl-5-(1H-pyrazol-4-yl)pyridin-2-yl)-imidazolidin-2-one] | 20.1 to 200
COc1cc(F)cc(C(C)N2CCN(c3ccc(-c4cn[nH]c4)c(C)n3)C2=O)c1 (single isomer, unassigned) [Example 206, 1-(1-(3-fluoro-5-methoxy-phenyl)-ethyl)-3-(6-methyl-5-(1H-pyrazol-4-yl)pyridin-2-yl)-imidazolidin-2-one] | < 2
COc1cc(F)cc(C(C)N2CCN(c3ccc(-c4cn[nH]c4)c(C)n3)C2=O)c1 (single isomer, unassigned) [Example 207, 1-(1-(3-fluoro-5-methoxyphenyl)ethyl)-3-(6-methyl-5-(1H-pyrazol-4-yl)pyridin-2-yl)imidazolidin-2-one] | 200 to 2000
COc1cc(C(C)N2CCN(c3ccc(-c4cn[nH]c4)c(C)n3)C2=O)ccc1F (single isomer, unassigned) [Example 208, 1-(1-(4-fluoro-3-methoxyphenyl)ethyl)-3-(6-methyl-5-(1H-pyrazol-4-yl)pyridin-2-yl)imidazolidin-2-one] | 200 to 2000
COc1cc(C(C)N2CCN(c3ccc(-c4cn[nH]c4)c(C)n3)C2=O)ccc1F (single isomer, unassigned) [Example 209, 1-(1-(4-fluoro-3-methoxyphenyl)ethyl)-3-(6-methyl-5-(1H-pyrazol-4-yl)pyridin-2-yl)imidazolidin-2-one] | 2.1 to 20
COc1nc(N2CCN(C(C)c3cccc(OCC4CC4)c3)C2=O)ccc1-c1cn[nH]c1 (single isomer, unassigned) [Example 212, 1-(1-(3-(cyclopropylmethoxy)phenyl)ethyl)-3-(6-methoxy-5-(1H-pyrazol-4-yl)pyridin-2-yl)imidazolidin-2-one] | 2.1 to 20
COc1cc(F)cc(C(C)N2CCN(c3ccc(-c4cn[nH]c4)c(OC)n3)C2=O)c1 (single isomer, unassigned) [Example 228, 1-(1-(3-fluoro-5-methoxyphenyl)ethyl)-3-(6-methoxy-5-(1H-pyrazol-4-yl)pyridin-2-yl)imidazolidin-2-one] | < 2
COc1cc(F)cc(C(C)N2CCN(c3ccc(-c4cn[nH]c4)c(OC)n3)C2=O)c1 (single isomer, unassigned) [Example 229, 1-(1-(3-fluoro-5-methoxyphenyl)ethyl)-3-(6-methoxy-5-(1H-pyrazol-4-yl)pyridin-2-yl)imidazolidin-2-one] | 2.1 to 20
COc1cc(C(C)N2CCN(c3ccc(-c4cn[nH]c4)c(OC)n3)C2=O)ccc1F (single isomer, unassigned) [Example 230, 1-(1-(4-fluoro-3-methoxyphenyl)ethyl)-3-(6-methoxy-5-(1H-pyrazol-4-yl)pyridin-2-yl)imidazolidin-2-one] | < 2
COc1cc(C(C)N2CCN(c3ccc(-c4cn[nH]c4)c(OC)n3)C2=O)ccc1F (single isomer, unassigned) [Example 231, 1-(1-(4-fluoro-3-methoxyphenyl)ethyl)-3-(6-methoxy-5-(1H-pyrazol-4-yl)pyridin-2-yl)imidazolidin-2-one] | 20.1 to 200

Next, values leading:

IC50 [nM] | SMILES
< 2 | CCc1nc(N2CCN(C(C)c3cccc(OC)c3)C2=O)ccc1-c1cn[nH]c1 (single isomer, unassigned) [Example 173, 1-(6-ethyl-5-(1H-pyrazol-4-yl)pyridin-2-yl)-3-(1-(3-methoxy-phenyl)ethyl) imidazolidin-2-one]
200 to 2000 | CCc1nc(N2CCN(C(C)c3cccc(OC)c3)C2=O)ccc1-c1cn[nH]c1 (single isomer, unassigned) [Example 174, 1-(6-ethyl-5-(1H-pyrazol-4-yl)pyridin-2-yl)-3-(1-(3-methoxy-phenyl)ethyl) imidazolidin-2-one]
2.1 to 20 | COc1cccc(C(C)N2CCN(c3ccc(-c4cn[nH]c4)c(C)n3)C2=O)c1 (single isomer, unassigned) [Example 181, 1-(1-(3-methoxy-phenyl)-ethyl)-3-(6-methyl-5-(1H-pyrazol-4-yl)pyridin-2-yl)-imidazolidin-2-one]
200 to 2000 | COc1cccc(C(C)N2CCN(c3ccc(-c4cn[nH]c4)c(C)n3)C2=O)c1 (single isomer, unassigned) [Example 182, 1-(1-(3-methoxy-phenyl)-ethyl)-3-(6-methyl-5-(1H-pyrazol-4-yl)pyridin-2-yl)-imidazolidin-2-one]
< 2 | CCc1nc(-n2ccn(C(C)c3cccc(OC)c3)c2=O)ccc1-c1cn[nH]c1 (single isomer, unassigned) [Example 183, 1-(6-ethyl-5-(1H-pyrazol-4-yl)pyridin-2-yl)-3-(1-(3-methoxy-phenyl)-ethyl)-1H-imidazol-2(3H)-one]
200 to 2000 | CCc1nc(-n2ccn(C(C)c3cccc(OC)c3)c2=O)ccc1-c1cn[nH]c1 (single isomer, unassigned) [Example 184, 1-(6-ethyl-5-(1H-pyrazol-4-yl)pyridin-2-yl)-3-(1-(3-methoxy-phenyl)-ethyl)-1H-imidazol-2(3H)-one]
< 2 | COc1cccc(C(C)n2ccn(-c3ccc(-c4cn[nH]c4)c(C)n3)c2=O)c1 (single isomer, unassigned) [Example 188, 1-(1-(3-methoxy-phenyl)ethyl)-3-(6-methyl-5-(1H-pyrazol-4-yl)pyridin-2-yl)-1H-imidazol-2(3H)-one]
20.1 to 200 | COc1cccc(C(C)n2ccn(-c3ccc(-c4cn[nH]c4)c(C)n3)c2=O)c1 (single isomer, unassigned) [Example 189, 1-(1-(3-methoxy-phenyl)-ethyl)-3-(6-methyl-5-(1H-pyrazol-4-yl)pyridin-2-yl)-1H-imidazol-2(3H)-one]
200 to 2000 | COc1cccc(C(C)N2CCN(c3ccc(-c4cn[nH]c4)c(C)c3)C2=O)c1 (single isomer, unassigned) [Example 192, 1-(1-(3-methoxy-phenyl)-ethyl)-3-(3-methyl-4-(1H-pyrazol-4-yl)phenyl) imidazolidin-2-one]
2.1 to 20 | COc1cccc(C(C)N2CCN(c3ccc(-c4cn[nH]c4)c(C)c3)C2=O)c1 (single isomer, unassigned) [Example 193, 1-(1-(3-methoxy-phenyl)-ethyl)-3-(3-methyl-4-(1H-pyrazol-4-yl)phenyl) imidazolidin-2-one]
200 to 2000 | COc1nc(N2CCN(C(C)c3cccc(OCC4CC4)c3)C2=O)ccc1-c1cn[nH]c1 (single isomer, unassigned) [Example 213, 1-(1-(3-(cyclopropylmethoxy)phenyl)ethyl)-3-(6-methoxy-5-(1H-pyrazol-4-yl)pyridin-2-yl)imidazolidin-2-one]
< 2 | COc1cccc(C(C)N2CCN(c3ccc(-c4cn[nH]c4)c(OC)n3)C2=O)c1 (single isomer, unassigned) [Example 219, 1-(6-methoxy-5-(1H-pyrazol-4-yl)pyridin-2-yl)-3-(1-(3-methoxyphenyl)ethyl)imidazolidin-2-one]
20.1 to 200 | COc1cccc(C(C)N2CCN(c3ccc(-c4cn[nH]c4)c(OC)n3)C2=O)c1 (single isomer, unassigned) [Example 220, 1-(6-methoxy-5-(1H-pyrazol-4-yl)pyridin-2-yl)-3-(1-(3-methoxyphenyl)ethyl)imidazolidin-2-one]
20.1 to 200 | CCc1nc(N2CCN(C(C)c3cccc(OCC4CC4)c3)C2=O)ccc1-c1cn[nH]c1 (single isomer, unassigned) [Example 265, 1-(1-(3-(cyclopropylmethoxy)phenyl)ethyl)-3-(6-ethyl-5-(1H-pyrazol-4-yl)pyridin-2-yl)imidazolidin-2-one]
2.1 to 20 | CCOc1cccc(C(C)N2CCN(c3ccc(-c4cn[nH]c4)c(CC)n3)C2=O)c1 (single isomer, unassigned) [Example 266, 1-(1-(3-ethoxyphenyl)ethyl)-3-(6-ethyl-5-(1H-pyrazol-4-yl)pyridin-2-yl)imidazolidin-2-one]
200 to 2000 | CCOc1cccc(C(C)N2CCN(c3ccc(-c4cn[nH]c4)c(CC)n3)C2=O)c1 (single isomer, unassigned) [Example 267, 1-(1-(3-ethoxyphenyl)ethyl)-3-(6-ethyl-5-(1H-pyrazol-4-yl)pyridin-2-yl)imidazolidin-2-one]
